Results reported in patent publication US20100099762A1, “COMBINATION THERAPY” (THE MENTAL HEALTH RESEARCH INSTITUTE OF VICTORIA, priority 2006, published 2010).
Marks after values point to notes of the source that are not given here.

Legend:
schizophrenia = assay: Randomised double blind multicentre placebo controlled trial of NAC in combination with an antipsychotic agent in schizophrenia; assay type: in vivo, human
Description: There is preclinical evidence of a reduction in antioxidant defences in schizophrenia, particularly a reduction in glutathione, which is a primary endogenous antioxidant defence. N-acetyl cysteine (NAC) is a bioavailable precursor of glutathione. This Example is a randomised double blind multicentre placebo controlled trial of the use of NAC in combination with an antipsychotic agent in the treatment of schizophrenia. A total of 140 individuals were randomised to receive 2 g daily of NAC in two divided doses, or placebo, together with their normal dosage of antipsychotic agent.
Participants were assigned randomly and consecutively to treatment with NAC or placebo in a double blind fashion. The randomisation log was generated by an independent individual using the traditional coin tossing method. The investigators and clinicians remained blind until data analysis was completed. The person generating the randomisation schedule was not involved in participant interviews, either for participant eligibility or outcome measurements.
All participants remained on their usual antipsychotic medication for the duration of the trial. The dose of the primary therapy was monitored. Participants were recruited through advertisements, referral by case clinicians and through database screening. All participants provided written informed consent as part of complying with the protocol.
All randomised participants received two NAC (500 mg) capsules twice daily, to a total dose of 2 g daily, or matching placebo capsules. Human dosing can be up to 5 g/day without adverse effects (Louwerse E. S. et al., 1995). A daily dose that is within the range of efficacy in published clinical trials (Adair J. C. et al., 2001, Van Schooten F. J. et al., 2002, and Behr J, et al., 2002) was selected. Once per day dosing is desirable in the drug treatment of schizophrenia, where medication compliance is known to be a challenge in management. However, steady state plasma levels cannot be achieved with a once daily oral dose of NAC as the plasma half-life is only 2-3 hours (Holdiness M. R., 1991 and Kelly G. S., 1998). While a twice-daily (BID) dosing regimen would also not be expected to achieve steady state plasma levels, dose intervals beyond BID were considered to markedly increase the risk of non-compliance in this population.
To be included, the patients were required to meet Diagnostic and Statistical Manual of Mental Disorders, fourth edition (DSM-IV) (Association AP, 1994) criteria for schizophrenia and have a PANSS total score of ≧55, or at least two items in the positive and/or negative items being >3, or have a CGI-S≧3. They needed to have the capacity to consent to the study, and be aged between 18 and 65. Both inpatients and outpatients were eligible. Participants needed to be currently taking an antipsychotic agent and to be utilising effective contraception if female and of childbearing age. Exclusion criteria included patients with abnormal renal, hepatic, thyroid or haematological findings, patients with a systemic medical disorder including asthma, allergies or any history of bronchospasm, respiratory insufficiency and recent gastrointestinal ulcers and females who were positive on pregnancy screening testing at baseline. Participants who were taking a mood stabiliser (e.g. lithium, valproate and carbamazepine) were excluded as were those currently taking drugs that are known to prevent GSH depletion (500+mg of NAC/day, 200+ug of selenium/day or 500+IU of Vitamin E/day).
Withdrawal from the trial occurred if participants ceased taking their trial medication for seven consecutive days, or ceased effective contraception, or became pregnant. A change in primary antipsychotic from one medication to another required participants to be withdrawn from the study. Similarly, the addition of a mood stabiliser required withdrawal of the participant. Dose changes to existing medications were not an exclusion criterion, and this was monitored. […]

[1] = in vivo; cited from earlier work
[2] = baseline to week 8, LOCF ANCOVA
[3] = baseline to week 24, LOCF ANCOVA
[4] = baseline to week 24, LOCF ANCOVA with treatment by investigator interaction
[5] = score at week 24, end of treatment
[6] = washout, week 28, LOCF ANCOVA with interaction term
[7] = week 8, LOCF ANCOVA, Placebo-NAC
[8] = week 24, LOCF ANCOVA, Placebo-NAC
[9] = week 24 to washout, week 28, LOCF ANCOVA
[10] = week 24 to washout, week 28, LOCF ANCOVA with interaction term

## CC(=O)N[C@@H](CS)C(=O)O [NAC, N-acetyl cysteine]
schizophrenia; 16 weeks of treatment
  Number of patients with clinician-observed improvement (CGI-S), NAC group versus placebo group: more than two-fold greater
  Range of CGI-S improvement from baseline in improved subjects: 1-3 points
schizophrenia; 24 weeks NAC 2 g daily
  Effects on safety parameters, including vital signs, weight and clinical biochemistry values: no significant effects
schizophrenia; ANCOVA, within-group
  GAF mean overall change from baseline to endpoint, NAC treatment group: +4.5 points
schizophrenia; MMRM
  PANSS scales, NAC versus placebo over all visits: did not detect a significant difference
schizophrenia; MMRM of individual items
  PANSS-Negative items 3 and 6 over all visits: significant (p<0.05) benefit
schizophrenia; MMRM of individual items, weeks 2, 4, 8, 16, 20, 24
  Individual PANSS items at specific visits: significant (p<0.05) improvements on several items
schizophrenia; MMRM, within-group
  GAF average improvement over all visits, NAC group: +3.1 points
schizophrenia; NAC 2 g daily plus usual antipsychotic, baseline to week 8, LOCF ANCOVA
  CGI-S: Within NAC Group Week 8 Mean Overall Change (95% CI): −0.32 (−0.48, −0.15)**
schizophrenia; NAC group, n=33
  Mean gain in weight at week 24: 0.394 kg
schizophrenia; NAC group, n=43
  Mean weight gain at week 8: 1.372 kg
schizophrenia; NAC versus placebo
  Functioning as measured by the GAF scale or the SOFAS, between groups: no between-group differences
schizophrenia; after 24 weeks of NAC treatment
  Effect size (Cohen's d statistic) on the BAS: 0.44
schizophrenia; akathisia, baseline to week 8, LOCF ANCOVA
  BAS: Within NAC Group Week 8 Mean Overall Change (95% CI): −0.23 (−0.58, 0.11)
schizophrenia; akathisia, baseline to week 24, LOCF ANCOVA
  BAS: Within NAC Group Week 24 Mean Overall Change (95% CI): −0.42 (−0.77, −0.06)*
schizophrenia; [2]
  AIMS: Within NAC Group Week 8 Mean Overall Change (95% CI): 0.08 (−0.48, 0.65)
  GAF: Within NAC Group Week 8 Mean Overall Change (95% CI): 2.7 (0.22, 5.3)*
  PANSS General: Within NAC Group Week 8 Mean Overall Change (95% CI): −1.7 (−3.2, −0.26)*
  PANSS Negative: Within NAC Group Week 8 Mean Overall Change (95% CI): −0.18 (−1.2, 0.82)
  PANSS Positive: Within NAC Group Week 8 Mean Overall Change (95% CI): −1.6 (−2.6, −0.64)*
  PANSS Total: Within NAC Group Week 8 Mean Overall Change (95% CI): −3.6 (−6.3, −0.90)*
  SAS: Within NAC Group Week 8 Mean Overall Change (95% CI): −0.05 (−0.30, 0.21)
  SOFAS: Within NAC Group Week 8 Mean Overall Change (95% CI): −0.25 (−3.5, 3.0)
schizophrenia; [3]
  AIMS: Within NAC Group Week 24 Mean Overall Change (95% CI): −0.44 (−1.03, 0.16)
  CGI-S: Within NAC Group Week 24 Mean Overall Change (95% CI): −0.35 (−0.56, −0.14)*
  GAF: Within NAC Group Week 24 Mean Overall Change (95% CI): 4.5 (1.5, 7.5)*
  PANSS Positive: Within NAC Group Week 24 Mean Overall Change (95% CI): −2.3 (−3.49, −1.09)**
  SAS: Within NAC Group Week 24 Mean Overall Change (95% CI): −0.17 (−0.46, 0.13)
  SOFAS: Within NAC Group Week 24 Mean Overall Change (95% CI): −0.69 (−4.99, 3.6)
schizophrenia; [4]
  PANSS General: Within NAC Group Week 24 Mean Overall Change (95% CI): −4.4 (−6.39, −2.48)^d**
  PANSS Negative: Within NAC Group Week 24 Mean Overall Change (95% CI): −1.6 (−2.71, −0.46)^d
  PANSS Total: Within NAC Group Week 24 Mean Overall Change (95% CI): −8.8 (−12.2, −5.5)^d**
schizophrenia; checklist of 44 somatic items
  Adverse events, NAC group compared to placebo group: No reported event was significantly more common
  Eye irritation, NAC treatment group compared to placebo: significantly less
schizophrenia; over all visits
  SAS or AIMS scores, placebo versus NAC over all visits: no significant differences
schizophrenia; score at that time point (no baseline score), week 8, NAC 2 g daily plus antipsychotic
  CGI-I: Within NAC Group Week 8 Mean (95% CI): 3.1 (2.9, 3.4)
schizophrenia; score at that time point (no baseline score), week 24
  CGI-I: Within NAC Group Week 24 Mean (95% CI): 2.9 (2.6, 3.1)
schizophrenia; score at that time point, washout, week 28
  CGI-I: NAC Mean (95% CI) at post-treatment discontinuation: 2.9 (2.5, 3.4)
schizophrenia; [5]
  AIMS: NAC Mean Week 24 (SD): 2.2 (3.5)
  BAS: NAC Mean Week 24 (SD): 0.42 (0.93)
  CGI-I: NAC Mean Week 24 (SD): 2.9 (0.93)
  CGI-S: NAC Mean Week 24 (SD): 3.5 (1.0)
  GAF: NAC Mean Week 24 (SD): 54.4 (15.4)
  PANSS General: NAC Mean Week 24 (SD): 28.8 (8.5)
  PANSS Negative: NAC Mean Week 24 (SD): 13.7 (4.9)
  PANSS Positive: NAC Mean Week 24 (SD): 14.5 (5.6)
  PANSS Total: NAC Mean Week 24 (SD): 57.0 (16.1)
  SAS: NAC Mean Week 24 (SD): 1.6 (1.3)
  SOFAS: NAC Mean Week 24 (SD): 58.8 (12.7)
schizophrenia; time from commencing treatment, Fisher's categorical analysis
  Onset of clinical benefit on CGI-I (scores significantly better than placebo): ≤ 4 weeks
schizophrenia; time from commencing treatment, MMRM
  Onset of clinical benefit on CGI-S (scores significantly better than placebo): ≤ 2 weeks
schizophrenia; washout, week 28, LOCF ANCOVA
  AIMS: LS Mean Difference (95% CI) between placebo and NAC at post-treatment discontinuation: −0.40 (−1.41, 0.61)
  BAS: LS Mean Difference (95% CI) between placebo and NAC at post-treatment discontinuation: −0.31 (−0.91, 0.29)^‡
  GAF: LS Mean Difference (95% CI) between placebo and NAC at post-treatment discontinuation: 0.61 (−3.5, 4.72)^‡
  PANSS Positive: LS Mean Difference (95% CI) between placebo and NAC at post-treatment discontinuation: 0.75 (−0.72, 2.22)
  SAS: LS Mean Difference (95% CI) between placebo and NAC at post-treatment discontinuation: −0.52 (−0.99, −0.05)*
  SOFAS: LS Mean Difference (95% CI) between placebo and NAC at post-treatment discontinuation: −1.17 (−4.89, 2.55)
schizophrenia; [6]
  PANSS General: LS Mean Difference (95% CI) between placebo and NAC at post-treatment discontinuation: −0.85 (−3.45, 1.75)^‡
  PANSS Negative: LS Mean Difference (95% CI) between placebo and NAC at post-treatment discontinuation: −1.58 (−3.17, 0.00)^‡
  PANSS Total: LS Mean Difference (95% CI) between placebo and NAC at post-treatment discontinuation: −2.70 (−6.85, 1.45)^‡
schizophrenia; [7]
  AIMS: Between Placebo-NAC differences Week 8 LS Mean Difference (95% CI): −0.31 (−1.0, 0.41)
  BAS: Between Placebo-NAC differences Week 8 LS Mean Difference (95% CI): 0.20 (−0.24, 0.64)
  GAF: Between Placebo-NAC differences Week 8 LS Mean Difference (95% CI): −0.51 (−3.7, 2.7)
  PANSS General: Between Placebo-NAC differences Week 8 LS Mean Difference (95% CI): −1.5 (−3.4, 0.34)
  PANSS Negative: Between Placebo-NAC differences Week 8 LS Mean Difference (95% CI): −0.49 (−1.8, 0.80)
  PANSS Positive: Between Placebo-NAC differences Week 8 LS Mean Difference (95% CI): −0.25 (−1.5, 0.98)
  PANSS Total: Between Placebo-NAC differences Week 8 LS Mean Difference (95% CI): −2.6 (−6.1, 0.80)
  SAS: Between Placebo-NAC differences Week 8 LS Mean Difference (95% CI): −0.06 (−0.39, 0.26)
  SOFAS: Between Placebo-NAC differences Week 8 LS Mean Difference (95% CI): −0.20 (−3.9, 3.5)
schizophrenia; [8]
  AIMS: Between Placebo-NAC differences Week 24 LS Mean Difference (95% CI): 0.12 (−0.65, 0.89)
  BAS: Between Placebo-NAC differences Week 24 LS Mean Difference (95% CI): 0.54 (0.08, 1.00)*
  GAF: Between Placebo-NAC differences Week 24 LS Mean Difference (95% CI): −2.6 (−6.6, 1.3)
  PANSS Positive: Between Placebo-NAC differences Week 24 LS Mean Difference (95% CI): 0.50 (−1.1, 2.1)
  SAS: Between Placebo-NAC differences Week 24 LS Mean Difference (95% CI): 0.11 (−0.27, 0.50)
  SOFAS: Between Placebo-NAC differences Week 24 LS Mean Difference (95% CI): −0.92 (−5.67, 3.82)
schizophrenia; [9]
  AIMS: NAC Mean Overall Change (95% CI) at post-treatment discontinuation: −0.27 (−1.0, 0.50)
  BAS: NAC Mean Overall Change (95% CI) at post-treatment discontinuation: 0.42 (−0.02, 0.86)
  CGI-S: NAC Mean Overall Change (95% CI) at post-treatment discontinuation: −0.17 (−0.41, 0.08)
  GAF: NAC Mean Overall Change (95% CI) at post-treatment discontinuation: 0.37 (−2.7, 3.5)
  PANSS Positive: NAC Mean Overall Change (95% CI) at post-treatment discontinuation: −0.96 (−2.0, 0.12)
  SAS: NAC Mean Overall Change (95% CI) at post-treatment discontinuation: 0.30 (−0.06, 0.65)
  SOFAS: NAC Mean Overall Change (95% CI) at post-treatment discontinuation: −0.79 (−3.8, 2.2)
schizophrenia; [10]
  PANSS General: NAC Mean Overall Change (95% CI) at post-treatment discontinuation: 0.18 (−1.7, 2.1)
  PANSS Negative: NAC Mean Overall Change (95% CI) at post-treatment discontinuation: 0.60 (−0.55, 1.7)
  PANSS Total: NAC Mean Overall Change (95% CI) at post-treatment discontinuation: 0.56 (−2.4, 3.6)
schizophrenia; week 28, after washout, NAC versus placebo
  Proportion of patients clinically improved on the CGI-I scale referred to baseline: remained significantly greater
schizophrenia; weeks 12, 16 and 24
  More subjects in the NAC treatment group showing improvement on CGI-I compared to placebo: ≈ 25%
[1]
  Human dosing without adverse effects: up to 5 g/day
